Experiments:
Format in all cases: in vivo
FATZO mouse model [1] = assay: Liver Oil Red O staining area in FATZO mice on WDF, Example 5; details: oral, 4 weeks, LIVRQNAC + G 3885 mg/kg, LRQNAC 2469 mg/kg, OCA 30 mg/kg/day
Excerpt: NASH was induced in 60 male FATZO mice by a western diet (Research Diet #D12079B; fat 40% kcal, protein 17% kcal, carbohydrate 43% kcal) supplemented with 500 fructose in the drinking water (WDF) during a 16 week induction phase. Diets and water were available ad libitum. Littermate control male FATZO mice fed with a control diet (n=6, Purina #5008; fat 17% kcal, protein 27% kcal, carbohydrate 56% kcal) and sterile water were set up for control purpose. Mice were housed in plastic cages with microisolator. Sterilized bedding was replaced once a week. Mice were housed three per cage and maintained on a twelve hour light cycle throughout study duration. Room temperature was monitored daily and maintained at 22-25° C. Body weight was recorded every week during the induction phase. […]
[…], […]+G, LRQNAC, OCA and Vehicle were administered by oral gavage at a volume of 10 mL/kg throughout the study. Dosages were calculated by daily body weight. […]
Aperio Automatic Image Quantitation was employed to quantify positive pixels of immunohistochemical staining, Oil-Red 0, and Sirius Red staining. The Positive Pixel Count algorithm was used to quantify the percentage of a specific stain present in a scanned slide image. A range of color (range of hues and saturation) and three intensity ranges (weak, positive, and strong) were masked and evaluated. […]

FATZO mouse model [2] = assay: Liver histology: NAFLD activity score, steatosis, inflammation, ballooning in FATZO mice on WDF, Example 5; details: 4 weeks
Excerpt: (§1) NASH was induced in 60 male FATZO mice by a western diet (Research Diet #D12079B; fat 40% kcal, protein 17% kcal, carbohydrate 43% kcal) supplemented with 500 fructose in the drinking water (WDF) during a 16 week induction phase. Diets and water were available ad libitum. Littermate control male FATZO mice fed with a control diet (n=6, Purina #5008; fat 17% kcal, protein 27% kcal, carbohydrate 56% kcal) and sterile water were set up for control purpose. Mice were housed in plastic cages with microisolator. Sterilized bedding was replaced once a week. Mice were housed three per cage and maintained on a twelve hour light cycle throughout study duration. Room temperature was monitored daily and maintained at 22-25° C. Body weight was recorded every week during the induction phase.
(§2) Following 16 weeks diet induction, 6 mice remained on control diet (group 1, Control) while 60 induced mice were randomized on body weight and plasma glucose (fed) for assignment to the following treatments. FATZO mice were administered with test articles starting at 16 weeks post western diet NASH induction for 4 weeks. Test articles were administered by oral gavage. Animals were euthanized at 20 weeks post western diet NASH induction, and tissues were harvested for analysis.
(§3) […], […]+G, LRQNAC, OCA and Vehicle were administered by oral gavage at a volume of 10 mL/kg throughout the study. Dosages were calculated by daily body weight. […], […]+G, LRQNAC, and Vehicle were administered twice per day (BID), while OCA was administered once a day (QD) in the morning. Mice receiving OCA once per day (QD), and one vehicle QD. Doses were administered by oral gavage at 0700 and 1800 by oral gavage for 4 weeks.
The liver tissues were fixed in Bouin's solution at 4° C. for 24 hours followed by baths of standard concentrations of alcohol then xylene to prepare the tissues for paraffin embedding.
After being embedded in paraffin and cooled, five-micron sections were cut and stained for routine H&E and Picric Sirius Red. A section of both right and left lobes of the livers were frozen in OCT for analysis of lipid content with Oil-Red-) staining. The Aperio whole slide digital imaging system (Scan Scope C S, Vista, CA) was used for imaging. All slides were imaged at 20×. The scan time ranged from 1.5 minutes to a maximum time of 2.25 minutes. The whole images were housed and stored in their Spectrum software system and images were shot from the whole slides.
The livers were evaluated using the NASH liver criteria for scoring. In this mouse study, one cross section of liver for each case was analyzed with the NASH score system. According to the published NASH CRN Scoring System, this scoring system comprises of NAFLD Activity Score (NAS), fibrosis stage and identification of NASH by pattern recognition. The NAS can range from 0 to 8 and is calculated by the sum of scores of steatosis (0-3), lobular inflammation (0-3) and hepatocyte ballooning (0-2) from H&E stained sections. Fibrosis was scored (0-4) from picrosirius red stained slides. […] Steatosis, lobular inflammation, hepatocyte. balloon degeneration, fibrosis, NAS and the presence of NASH by pattern recognition were systematically assessed. In this study we evaluated one total cross section of liver per mouse in this study. […] The pathology score was determined as 0, +1, +2, or +3. The lesions were scored on location (periportal, centrilobular, and mid zonal) and fat accumulation (focal, periportal, and/or centrilobular). […]

FATZO mouse model [3] = assay: Liver triglyceride and cholesterol content in FATZO mice on WDF, Example 5; details: 4 weeks
Excerpt: as §1, §2, §3
Liver triglyceride and cholesterol content were similarly elevated after WDF feeding compared to vehicle treated animals fed control diet (liver triglyceridep<00.0040; liver cholesterol: p<0.0001). Among animals fed WDF, there were no significant differences in liver triglyceride (p<0.1206) when compared to vehicle for any treatment group. […]

[4] = oral, LIVRQNAC + G 3885 mg/kg, LRQNAC 2469 mg/kg, OCA 30 mg/kg/day
[5] = score 0-3, oral, LIVRQNAC + G 3885 mg/kg, LRQNAC 2469 mg/kg, OCA 30 mg/kg/day

CC[C@H]1[C@@H](O)[C@@H]2[C@H](CC[C@]3(C)[C@@H]([C@H](C)CCC(=O)O)CC[C@@H]23)[C@@]2(C)CC[C@@H](O)C[C@@H]12 [OCA, 6α-ethyl-chenodeoxycholic acid]
Oil Red O (staining area) (FATZO mouse model [1]): 0.24 ± 0.021
NAFLD activity score (NAS) compared to vehicle (FATZO mouse model [2]): no significant effect
Liver Pathology NAS (FATZO mouse model [2]; [4]): 3.72 ± 0.147
Liver Pathology Ballooning (FATZO mouse model [2]; score 0-2, oral, LIVRQNAC + G 3885 mg/kg, LRQNAC 2469 mg/kg, OCA 30 mg/kg/day): 0.94 ± 0.056
Liver Pathology Inflammation (FATZO mouse model [2]; [5]): 1.0 ± 0.0
Liver Pathology Steatosis (FATZO mouse model [2]; [5]): 1.78 ± 0.147
Reduction of liver cholesterol content compared to vehicle (FATZO mouse model [3]): 32%
Liver Cholesterol (FATZO mouse model [3]; [4]): 5.63 ± 0.495
Liver Triglyceride (FATZO mouse model [3]; [4]): 49.81 ± 1.63

— patent publication US20240238232A1, “COMPOSITIONS AND METHODS FOR THE REDUCTION OR TREATMENT OF INSULIN RESISTANCE AND METABOLIC CONDITIONS” (AXCELLA HEALTH INC., priority 2018, published 2024)
